According to PMC9574050, “Design, synthesis, and insecticidal activity of a novel series of flupyrimin analogs bearing 1-aryl-1H-pyrazol-4-yl subunits” (Frontiers in Chemistry, 2022):
Where two headings read alike, the source gives them in different places.

Legend:
Type in all cases: in vivo
[1] = test system: Nilaparvata lugens; experiment: Insecticidal activity against Nilaparvata lugens (Potter spray tower); details: 24 h, read-out: Mortality rate (%) N. lugens; for mortality at 100 µg/mL: 100 μg/mL
Source text: (§1) Preparation of test agent. Dissolve accurately weighed tested compound in DMF to prepare 1% mother liquor, and then dilute it with distilled water containing 0.1% Tween-80 to corresponding concentrations for later use.
Insecticidal activity against Nilaparvata lugens ([Ghareeb et al., 2021]). The seedlings with two leaves and one heart were placed in a Petri dish with a bottom diameter of 3 cm and covered with white sand. After the 3rd instar nymphae of N. lugens were stunned by CO2, about 15 nymphae were received in each dish, and then 2.5 ml of the tested agent was sprayed with Potter spray tower. The mortality of N. lugens was investigated 1 day after the treatment. Each treatment was repeated three times, and DMF without the tested compound was used as a blank control.
(§2) The insecticidal activities of the test compounds against the abovementioned five insects were calculated by the following formula: P1=(K/N)×100, (1) P2=(Pt−P0)/(1−P0)×100, (2) where P1 is the mortality rate; K is the dead insect number; N is the total number of experimental insects; P2 is the corrected mortality rate; Pt is the mortality rate of treatment; P0 is the mortality rate of CK. If the mortality rate of CK is less than 5%, without the required correction, and if the mortality rate of CK is between 5 and 20%, P2 should be calculated according to formula II.

[2] = test system: Helicoverpa armigera; experiment: Insecticidal activity against Helicoverpa armigera (soaking method); details: Helicoverpa armigera, 48 h, read-out: Mortality rate (%) H. armigera
Source text: as §1
Insecticidal activity against Helicoverpa armigera. The soaking method was adopted ([Yang et al., 2022]). After soaking a proper amount of corn leaves for 10 s, they were placed in a plastic Petri dish with filter paper and dried naturally in the shade. Ten larvae of the 2nd instar H. armigera were attached to each dish and placed in an observation room at 26°C with light (16/8 h). The result was counted 2 days later, and the no-response insect body when it was lightly touched with a brush was regarded as dead. Each treatment was repeated 3 times, and DMF without the tested compound was used as a blank control.
as §2

[3] = test system: Plutella xylostella; experiment: Insecticidal activity against Plutella xylostella (soaking method); details: Plutella xylostella, 48 h, read-out: Mortality rate (%) P. xylostella
Source text: as §1
Insecticidal activity against Plutella xylostella ([Yang et al., 2021]). The soaking method was adopted. After soaking a proper amount of radish leaves for 10 s, it was placed in a plastic Petri dish with filter paper and dried naturally in the shade. Each dish was inoculated with 10 2nd instar P. xylostella larvae and placed in an observation room at 22°C with light (16/8 h). The result was counted 2 days later, and the no-response insect body when it was lightly touched with a brush was regarded as dead. Each treatment was repeated three times, and DMF without the tested compound was used as a blank control.
as §2

[4] = test system: Chilo suppressalis; experiment: Insecticidal activity against Chilo suppressalis (soaking method); details: 96 h, read-out: Mortality rate (%) C. suppressalis
Source text: as §1
Insecticidal activity against Chilo suppressalis ([Huang et al., 2022]). The soaking method was adopted. The Zizania latifolia slices were soaked in a tested solution for 10 s, then taken out, and placed in a plastic Petri dish with filter paper to naturally dry in the shade. […] The result was counted 4 days later, and the no-response insect body when it was lightly touched with a brush was regarded as dead. Each treatment was repeated three times, and DMF without the tested compound was used as a blank control.
as §2

[5] = test system: Aphis craccivora; experiment: Insecticidal activity against Aphis craccivora (Potter spray tower); details: read-out: Mortality rate (%) A. craccivora
Procedure: as §1
Insecticidal activity against Aphis craccivora ([Liu et al., 2022]). About 30 nymphs of alfalfa aphid were placed on a horsebean leaf dish, and then 2.5 ml of the tested agent was sprayed with Potter spray tower. After treatment, they were cultured in an observation room at 20–22°C. The result was counted 24 h later, and the no-response insect body when it was lightly touched with tweezers was regarded as dead. Each treatment was repeated three times, and DMF without the tested compound was used as a blank control.
as §2

[6] = test system: honeybees (Apis mellifera); experiment: Bee acute oral toxicity; details: for LD50 / Mortality / Toxicity level: Oral toxicity
Procedure: (§3) The test bees were Italian bees (Apis mellifera), and the newly born adult worker bees (<24 h) were selected for drug drip treatment. Weigh 50 mg of test substance FLP and fully dissolve it in DMSO to obtain 10 × 10^4 mg A.I./L of stock liquid medicine; dissolve B4 fully in DMSO and fix the volume to a 1-ml volumetric flask to obtain 11.6 × 10^4 mg A.I./L stock solution.
Oral toxicity. Before the formal experiment, a pre-experiment was carried out. According to the formal experimental conditions, three to four dose groups were set at large intervals to observe the death of bees between 24 and 48 h and determine the linear range of the lethal effect of drugs on bees. According to the pre-test results, determine the concentration range of the formal test and set five to seven test dose groups. Starve bees for 2 h before being infected, and then eliminate bees that are dying or have abnormal behaviors; put 200 μL of test liquid medicine in the feeding tube, and after the liquid medicine is consumed (within 6 h), take out the feeder to measure the weight of the food that has not been consumed. Then, the bees were fed with sucrose solution without test samples. Cultivate in the dark. At the same time, feeding 50% sucrose solution as a blank control, the treatment group and the control group were set up with three replicates, and 20 bees were used in each replicate. According to the results of the pre-experiment, if the toxicity of the drug to bees is low, the upper limit dose of 100 μg a.i./bee is set for the limit test of bees, that is, when the tested substance reaches 100 μg a.i./bee, no bees die, so there is no need to continue the test. If the solubility of the test substance is less than 100 μg a. i./bee, the maximum solubility is adopted as the upper limit concentration. The test results were examined at 24 and 48 h, respectively, and the number of deaths and poisoning symptoms were recorded. The standard of death is touching the bee's body, and when it can't crawl, it is judged as death.
(§4) Statistical analysis. Using the statistical software SPSS16.0, the LD50 value and 95% confidence limit of the half lethal dose of the sample to bees were obtained by regression statistical analysis with the probit analysis method.

[7] = test system: honeybees (Apis mellifera); experiment: Bee contact toxicity; details: for LD50 / Toxicity level / Mortality: Contact toxicity; for Mortality: 1 μL of 10 × 10^4 mg A.I./L per bee
Procedure: as §3
Contact toxicity. 10 × 10^4 mg A.I./L of mother liquor was used as the test liquid, and 1 μL of the solution containing the tested drug was dripped onto the back of the front chest of bees by a micro-dropper. Then, bees were put into a beekeeping box and cultured in dark conditions at a temperature of 30 ± 1°C and relative humidity of 50%, with a 50% sucrose solution as food for 48 h. Taking the solvent drip bees without the drug to be tested as the blank control, the treatment group and the control group were set up with three replicates, and 10 bees were used in each replicate.
as §4

[8] = 3rd instar nymphae, 1 day after treatment
[9] = 400 μg/mL, 3rd instar nymphae, 1 day after treatment
[10] = 400 μg/mL, 2nd instar larvae, counted 2 days later
[11] = 400 μg/mL, 3rd instar larvae, counted 4 days later
[12] = 100 μg/mL, 2nd instar larvae, counted 2 days later

Cn1cc(C(=O)/N=c2\ccccn2Cc2cnn(-c3cccc(F)c3)c2C(F)(F)F)c(C(F)F)n1 [Compound D3, (E)-3-(difluoromethyl)-N-(1-((1-(3-fluorophenyl)-5-(trifluoromethyl)-1H-pyrazol-4-yl)methyl)pyridin-2(1H)-ylidene)-1-methyl-1H-pyrazole-4-carboxamide]
mortality at 100 µg/mL [1, 8]: 0% | mortality at 400 µg/mL [1, 9]: 100% | mortality at 400 µg/mL [2, 10]: 0% | mortality at 400 µg/mL [3, 10]: 63.3% | mortality at 400 µg/mL [4, 11]: 0% | mortality at 400 µg/mL ([5]; 400 μg/mL, counted 24 h later): 0%

COCC(=O)/N=c1\ccccn1Cc1cnn(-c2ccc(Cl)cc2)c1C(F)(F)F [Compound B4, (E)-N-(1-((1-(4-chlorophenyl)-5-(trifluoromethyl)-1H-pyrazol-4-yl)methyl)pyridin-2(1H)-ylidene)-2-methoxyacetamide]
mortality at 400 µg/mL [1, 9]: 0% | mortality at 400 µg/mL [2, 10]: 0% | mortality at 100 µg/mL [3, 12]: 96.7% | mortality at 400 µg/mL [3, 10]: 100% | LD50 ([6]; 24 h): >11.0 μg a.i./bee | Mortality ([6]; 24 h): 15 | Toxicity level ([6]; 24 h): Low toxicity | LD50 ([6]; 48 h): >11.0 μg a.i./bee | Mortality ([6]; 48 h): 17 | Toxicity level ([6]; 48 h): Low toxicity | LD50 oral toxicity ([6]; adult bees, time not stated): > 11.0 μg a.i./bee | LD50 ([7]; 24 h): >11.0 μg a.i./bee | Toxicity level ([7]; 24 h): Low toxicity | Mortality ([7]; 24 h): 3 | LD50 ([7]; 48 h): >11.0 μg a.i./bee | Toxicity level ([7]; 48 h): Low toxicity | Mortality ([7]; 48 h): 3 | LD50 contact toxicity ([7]; adult bees, time not stated): > 11.0 μg a.i./bee | mortality at 400 µg/mL [4, 11]: 0% | mortality at 400 µg/mL ([5]; 400 μg/mL, counted 24 h later): 0%

COCC(=O)/N=c1\ccccn1Cc1cnn(-c2cccc(F)c2)c1C(F)F [Compound B7, (E)-N-(1-((5-(difluoromethyl)-1-(3-fluorophenyl)-1H-pyrazol-4-yl)methyl)pyridin-2(1H)-ylidene)-2-methoxyacetamide]
mortality at 400 µg/mL [1, 9]: 0% | mortality at 400 µg/mL [2, 10]: 0% | mortality at 400 µg/mL [3, 10]: 66.7% | mortality at 400 µg/mL [4, 11]: 0% | mortality at 400 µg/mL ([5]; 400 μg/mL, counted 24 h later): 0%

COCC(=O)/N=c1\ccccn1Cc1cnn(-c2ccccc2)c1C(F)(F)F [Compound B1, (E)-2-methoxy-N-(1-((1-phenyl-5-(trifluoromethyl)-1H-pyrazol-4-yl)methyl)pyridin-2(1H)-ylidene)acetamide]
mortality at 400 µg/mL [1, 9]: 48.9% | mortality at 400 µg/mL [2, 10]: 0% | mortality at 25 µg/mL ([3]; 25 μg/mL, 2nd instar larvae, counted 2 days later): 16.7% | mortality at 100 µg/mL [3, 12]: 100% | mortality at 400 µg/mL [3, 10]: 100% | mortality at 400 µg/mL [4, 11]: 0% | mortality at 400 µg/mL ([5]; 400 μg/mL, counted 24 h later): 0%

CNC(=O)c1cc(Cl)cc(C)c1NC(=O)c1cc(Br)nn1-c1ncccc1Cl [CAT, chlorantraniliprole, reference compound]
mortality at 400 µg/mL [1]: 0% | mortality at 400 µg/mL [2]: 100% | mortality at 25 µg/mL [3]: 100% | mortality at 100 µg/mL [3]: 100% | mortality at 400 µg/mL [3]: 100% | mortality at 100 µg/mL [4]: 100% | mortality at 400 µg/mL [4]: 100% | mortality at 400 µg/mL ([5]; 24 h): 0%

Cn1cc(C(=O)/N=c2\ccccn2Cc2cnn(-c3ccc(C(F)(F)F)cc3)c2C(F)(F)F)c(C(F)F)n1 [Compound D5, (E)-3-(difluoromethyl)-1-methyl-N-(1-((5-(trifluoromethyl)-1-(4-(trifluoromethyl)phenyl)-1H-pyrazol-4-yl)methyl)pyridin-2(1H)-ylidene)-1H-pyrazole-4-carboxamide]
mortality at 400 µg/mL [1, 9]: 0% | mortality at 400 µg/mL [2, 10]: 0% | mortality at 400 µg/mL [3, 10]: 63.3% | mortality at 400 µg/mL [4, 11]: 0% | mortality at 400 µg/mL ([5]; 400 μg/mL, counted 24 h later): 0%

O=C(/N=c1\ccccn1Cc1cnn(-c2cccc(Cl)c2)c1C(F)F)C(F)(F)F [Compound A6, (E)-N-(1-((1-(3-chlorophenyl)-5-(difluoromethyl)-1H-pyrazol-4-yl)methyl)pyridin-2(1H)-ylidene)-2,2,2-trifluoroacetamide]
mortality at 100 µg/mL [1, 8]: 0% | mortality at 400 µg/mL [1, 9]: 100% | mortality at 400 µg/mL [2, 10]: 0% | mortality at 400 µg/mL [3, 10]: 50% | mortality at 400 µg/mL [4, 11]: 0% | mortality at 400 µg/mL ([5]; 400 μg/mL, counted 24 h later): 0%

O=C(/N=c1\ccccn1Cc1cnn(-c2ccccc2Cl)c1C(F)(F)F)C(F)(F)C(F)(F)F [Compound C2, (E)-N-(1-((1-(2-chlorophenyl)-5-(trifluoromethyl)-1H-pyrazol-4-yl)methyl)pyridin-2(1H)-ylidene)-2,2,3,3,3-pentafluoropropanamide]
mortality at 400 µg/mL [1, 9]: 0% | mortality at 400 µg/mL [2, 10]: 0% | mortality at 400 µg/mL [3, 10]: 0% | mortality at 400 µg/mL [4, 11]: 0% | mortality at 400 µg/mL ([5]; 400 μg/mL, counted 24 h later): 0%
